# Laboratory results as given in patent US20170137818A1, “APTAMER INHIBITING BIOLOGICAL ACTIVITY OF AUTOTAXIN BY BINDING WITH AUTOTAXIN, AND USE THEREOF” (RIBOMIC INC., priority 2014, published 2017).
# Assays:
# autotaxin [1] = target: T1, autotaxin (Homo sapiens, UniProt Q13822); assay: Biacore surface plasmon resonance, nucleic acid immobilized on SA chip, autotaxin as analyte; format: binding; conditions: Example 1, running text
# T1 construct: His; purchased R&D
# Description: Biacore T100 manufactured by GE Healthcare is used for the measurement of binding strength. In one measurement method, an aptamer is first immobilized on a sensorchip. The immobilization amount is set to about 1500 RU. An autotaxin solution as an analyte prepared to 0.020 μM is injected by 20 μL, and binding of the autotaxin to the aptamer is detected.
# All nucleic acids shown in SEQ ID NOs: 4-10 were produced by chemical synthesis. The binding activity of these nucleic acids to autotaxin was evaluated by the surface plasmon resonance method. For the measurement, Biacore T100 manufactured by GE Healthcare was used. The SA chips with streptavidin immobilized thereon were used as the sensor chips. Binding thereto was about 1500 RU of 16 nucleotide Poly dT of which biotin was bound to the 5′-terminus. The nucleic acids used as a ligand were added with Poly A (16 nucleotides) to the 3′-terminus, and were immobilized on SA chips by T-A annealing. The nucleic acids (20 μL) were injected at a flow rate of 20 μL/min to immobilize about 1500 RU of the nucleic acids. An autotaxin for analyte was prepared at 0.02 μM, and 20 μL thereof was injected. As a running buffer, solution A (mixed solution of 145 mM sodium chloride, 5.4 mM potassium chloride, 1.8 mM calcium chloride, 0.8 mM magnesium chloride, 20 mM Tris (pH 7.6), 0.05% Tween20) was used.
# autotaxin [2] = target: T1, autotaxin; assay: Biacore surface plasmon resonance, autotaxin immobilized on CM4 chip, nucleic acid as analyte; format: binding; conditions: autotaxin immobilized about 2700 RU, nucleic acid 0.3 μM as analyte; maximum RU relative to SEQ ID NO: 12
# Description: In another measurement method, an autotaxin is first immobilized on a sensorchip. The immobilization amount is set to about 2700 RU. An aptamer solution as an analyte prepared to 0.30 μM is injected by 20 μL, and binding of the aptamer to the autotaxin is detected.
# All nucleic acids of SEQ ID NOs: 11-16 were produced by chemical synthesis. Whether these nucleic acids bind to autotaxin was evaluated by the surface plasmon resonance method. For the measurement, Biacore T100 manufactured by GE Healthcare was used, and the measurement was performed by the method shown below. About 2700 RU autotaxin was immobilized on a sensorchip surface of CM4 chip by using an amino coupling kit. The flow rate was 20 μL/min, and nucleic acids (20 μL) prepared to 0.3 μM were injected as an analyte. As a running buffer, solution A was used.
# autotaxin [3] = target: T1, autotaxin; assay: NPP2 inhibitory assay (pNP-TMP substrate); format: biochemical; conditions: mean of 2-3 measurements ± standard deviation
# Description: Whether an aptamer inhibits the enzyme activity of autotaxin can be evaluated, for example, by the following test. As a substrate of autotaxin, phosphodiester bond-containing synthetic substrate p-nitrophenyl thymidine 5′-monophosphate (pNP-TMP) (SIGMA) is used. A phosphodiester bond is cleaved by hydrolysis, and p-nitrophenol is liberated. The p-nitrophenol develops a yellow color, and the color is detected. For the assay, a 96-well plate (96-Well EIAsurasshuRIA Polystyrene Plates, Costar) was used, and the amount of the reaction mixture was 200 μL. Nucleic acid was prepared in solution A (see below-mentioned Example 1) (100 μL), pNP-TMP (20 μL) adjusted to 10 mM in the reaction mixture A was added, and the mixture was stirred well and heated at 37° C. for 5 min. On the other hand, 6 ng of autotaxin (Recombinant Human, manufactured by R&D) diluted with solution A was prepared (80 μL), and heated at 37° C. for 5 min. After heating, they were mixed to start an enzyme reaction. The final autotaxin concentration in the reaction solution was 0.3 nM, and the final substrate concentration was 1 mM. A plate containing the reaction mixture was heated at 37° C. for 24 hr, placed in a microplate reader SpectraMax190 (manufactured by Molecular Devices) and the absorbance was determined at wavelength 405 nm. The absorbance when nucleic acid is not added as 100% (A0), an enzyme activity rate was determined from the absorbance (A) of each test substance and according to the following formula.
# Enzyme activity rate=(A/A0)×100
# (§1) The concentration (IC50) of an inhibitor necessary for inhibiting the enzyme activity by 50% was determined.
# Whether these nucleic acids show an autotaxin inhibitory activity was evaluated by the following method. As a substrate of autotaxin, phosphodiester bond-containing synthetic substrate p-nitrophenyl thymidine 5′-monophosphate (pNP-TMP) (SIGMA) was selected (hereinafter to be referred to as NPP2 inhibitory assay). A phosphodiester bond is cleaved by hydrolysis, and p-nitrophenol is liberated. The p-nitrophenol develops a yellow color, and the color is detected. For the assay, a 96-well plate (96-Well EIA/RIA Polystyrene Plates, Costar) was used, and the amount of the reaction mixture was 200 μL. As the reaction mixture, solution A was used. Nucleic acids were prepared in solution A (100 μL), pNP-TMP (20 μL) adjusted to 10 mM in the reaction mixture A was added, and the mixture was stirred well and heated at 37° C. for 5 min. On the other hand, 6 ng of autotaxin diluted with solution A was prepared (80 μL), and heated at 37° C. for 5 min. After heating, they were mixed to start enzyme reaction. The final autotaxin concentration in the reaction solution was 0.3 nM, and the final substrate concentration was 1 mM. A plate containing the reaction mixture was heated at 37° C. for 24 hr, placed in a microplate reader SpectraMax190 (manufactured by Molecular Devices) and the absorbance was determined at wavelength 405 nm. The absorbance when nucleic acids are not added as 100% (A0), an […] was determined from the absorbance (A) of each test substance and according to the following formula.
# as §1
# autotaxin [4] = target: T1, autotaxin; assay: LysoPLD inhibitory assay (14:0 LPC substrate, choline detection); format: biochemical
# Description: As a substrate of autotaxin, 14:0 lysophosphatidylcholine (LPC, Avanti) was selected (hereinafter to be referred to as LysoPLD inhibitory assay). LPC is hydrolyzed by the lysophospholipase D activity of autotaxin and decomposed into lysophosphatidic acid (LPA) and choline. Choline is oxidized by choline oxidase to afford hydrogen peroxide. In the presence of the hydrogen peroxide and peroxidase, N-ethyl-N-(2-hydroxy-3-sulfopropyl)-3-methoxyaniline (TOOS) and 4-aminoantipyrine (4-AA) undergo oxidation condensation reaction, which develops a purple color to be detected.
# For the reaction, a 96-well plate (polypropylene 96-well, manufactured by BMbio) was used, and the amount of the reaction mixture was 60 μL. As a reaction solution, solution A was used. […] The lysophospholipase D activity of autotaxin was evaluated as follows. […] The absorbance was measured at a wavelength of 548 nm, and used as a blank value. Then, solution C (50 μL) was added, and changes in the absorbance at wavelength 548 nm were measured over time. Solution C contained 100 mM tris (pH 8.0), 10 U/mL choline oxidase (manufactured by TOYOBO), 1 mM 4-AA (manufactured by DOJINDO), and 0.01% Triton-X. The absorbance of solution blank at the time point when solution B was added, which had been measured earlier, was subtracted from the absorbance at 15 min after addition of solution C, whereby true absorbance value was obtained. […]
# [5] = Table 4, >1.0 = no inhibitory activity up to 1.0 μM
Molecule,Binding activity by Biacore (autotaxin [2]),IC50 (autotaxin [3]; [5]),IC50 (autotaxin [3]; Table 2),also measured
"GTGGTCTAGCTGTACTCNNNNNNNNNNNNNNNNNNNNNNNNNNNNNNNNNNNNNNNNCCACAGTCAACGAGCTA [SEQ ID NO: 1(40N), reference compound]",–,–,–,binding to autotaxin (in words) (autotaxin [1]): not bind
11 (GTACTCATGGACGGAACCAGAATACTTTTGGTCTCCATTGAGTAC; chemistry not fully specified) [compound 11],+ (not less than that),–,–,–
"29 (GCTGGCCGGAACCGTGCATATGGTCGCCAGC; DNA, backbone and methylation of C not given here) [compound 29]",–,11 ± 4 nM,–,–
"26 (CGCTGGGGTACGCTCGGAACCGAGGCAATTGGTCAGCG; DNA, backbone and methylation of C not given here) [compound 26]",–,440 ± 41 nM,–,–
"15 (CCTGGACGGAACCAATACTTGGTCTCCAGG; DNA, backbone and methylation of C not given here) [compound 15]",− (not more than 10% of the aptamer shown in SEQ ID NO: 12 that showed the highest binding amount),–,990 ± 11 nM,–
"13 (TGGACGGAACCAGAATACTTTTGGTCTCCA; DNA, backbone and methylation of C not given here) [compound 13]",+ (not less than that),–,110 ± 7 nM,–
"16 (CTGGACGGAACCAGAATACTTTTGGTCTCCAG; DNA, backbone and methylation of C not given here) [compound 16]",+ (not less than that),–,18 ± 1 nM,–
"28 (ACAGGCGCTGGCCGGAACCGTGCATATGGTC; DNA, backbone and methylation of C not given here) [compound 28]",–,> 1000 nM,–,–
CCCCCCCCCCCCCC(=O)Nc1ccc(CP(=O)(O)O)cc1 [S32826],–,–,–,"LysoPLD inhibitory activity (in words) (autotaxin [4]): an inhibitory activity was not found; IC50 (autotaxin [4]; autotaxin 2.1 nM, 14:0 LPC 2 mM, 37° C. 6 hr, mean of 2-3 measurements±standard deviation, >1000 = no inhibitory activity up to 1000 nM): > 1000 nM"
"27 (TACGCTCGGAACCGAGGCAATTGGTCAGCGTG; DNA, backbone and methylation of C not given here) [compound 27]",–,24 ± 10 nM,–,–
"14 (GGGACGGAACCAGAATACTTTTGGTCTCCC; DNA, backbone and methylation of C not given here) [compound 14]",+ (not less than that),–,42 ± 5 nM,–
12 (CCTGGACGGAACCAGAATACTTTTGGTCTCCAGG; chemistry not fully specified) [compound 12],+ (not less than that),–,–,–
